According to ChEMBL document CHEMBL1139073, “Inhibition of Src kinase activity by 7-ethynyl-4-phenylamino-3-quinolinecarbonitriles: identification of SKS-927” (Bioorg Med Chem Lett, 2007):
Values after ≈ are worked out from the molar mass of the structure shown.

How the values were obtained:
[1] = molecular target: Proto-oncogene tyrosine-protein kinase Src (Homo sapiens, UniProt P12931); test: Inhibition of Src activity; type: functional
[2] = molecular target: Proto-oncogene tyrosine-protein kinase Src (Rattus norvegicus, UniProt Q9WUD9); test: Inhibition of Src in rat fibroblasts
Sequence of Proto-oncogene tyrosine-protein kinase Src (Rattus norvegicus, UniProt Q9WUD9) (Q9WUD9 2-536 limits assumed): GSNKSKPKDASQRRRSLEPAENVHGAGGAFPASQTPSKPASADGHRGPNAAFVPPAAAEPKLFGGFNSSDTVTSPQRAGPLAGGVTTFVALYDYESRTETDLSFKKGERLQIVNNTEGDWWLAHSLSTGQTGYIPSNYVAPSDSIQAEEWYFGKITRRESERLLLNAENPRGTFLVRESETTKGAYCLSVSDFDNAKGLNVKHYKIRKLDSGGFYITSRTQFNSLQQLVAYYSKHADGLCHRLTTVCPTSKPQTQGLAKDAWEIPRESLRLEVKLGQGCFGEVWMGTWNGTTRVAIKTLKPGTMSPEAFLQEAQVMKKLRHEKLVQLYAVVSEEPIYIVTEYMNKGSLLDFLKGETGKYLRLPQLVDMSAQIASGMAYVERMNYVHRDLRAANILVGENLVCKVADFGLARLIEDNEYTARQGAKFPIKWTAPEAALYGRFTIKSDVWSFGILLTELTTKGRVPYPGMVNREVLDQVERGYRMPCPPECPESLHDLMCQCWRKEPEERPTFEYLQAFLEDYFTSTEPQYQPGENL

[3] = molecular target: RAC-alpha serine/threonine-protein kinase (Homo sapiens, UniProt P31749); test: Inhibition of AKT
Sequence of RAC-alpha serine/threonine-protein kinase (P31749 whole entry): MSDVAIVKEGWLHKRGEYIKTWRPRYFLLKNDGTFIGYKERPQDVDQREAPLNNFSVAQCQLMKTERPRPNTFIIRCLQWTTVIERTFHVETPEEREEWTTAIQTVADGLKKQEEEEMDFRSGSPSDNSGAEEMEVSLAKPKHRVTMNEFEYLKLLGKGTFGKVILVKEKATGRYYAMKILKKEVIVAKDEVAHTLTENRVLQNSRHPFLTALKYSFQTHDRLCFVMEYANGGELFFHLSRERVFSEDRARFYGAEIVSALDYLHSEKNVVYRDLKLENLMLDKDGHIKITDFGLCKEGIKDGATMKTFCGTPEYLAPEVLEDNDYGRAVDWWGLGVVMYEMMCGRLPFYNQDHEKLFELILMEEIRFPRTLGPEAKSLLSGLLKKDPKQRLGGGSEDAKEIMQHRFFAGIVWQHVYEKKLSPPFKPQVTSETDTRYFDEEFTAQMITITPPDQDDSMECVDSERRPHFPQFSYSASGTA

[4] = molecular target: Cyclin-dependent kinase 4 (Homo sapiens, UniProt P11802); test: Inhibition of CDK4
Sequence of Cyclin-dependent kinase 4 (P11802 whole entry): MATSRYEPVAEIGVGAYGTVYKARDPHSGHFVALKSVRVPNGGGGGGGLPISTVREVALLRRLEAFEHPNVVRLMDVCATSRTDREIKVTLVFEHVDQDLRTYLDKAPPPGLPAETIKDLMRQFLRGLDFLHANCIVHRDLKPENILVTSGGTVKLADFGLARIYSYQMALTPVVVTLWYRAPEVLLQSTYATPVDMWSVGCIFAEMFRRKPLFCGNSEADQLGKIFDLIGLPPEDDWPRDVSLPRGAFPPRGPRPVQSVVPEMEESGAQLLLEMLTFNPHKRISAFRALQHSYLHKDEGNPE

[5] = Inhibition of IGFR; set-up: species or system Homo sapiens
[6] = molecular target: Vascular endothelial growth factor receptor 2 (Homo sapiens, UniProt P35968); test: Inhibition of KDR
Sequence of Vascular endothelial growth factor receptor 2 (P35968 whole entry): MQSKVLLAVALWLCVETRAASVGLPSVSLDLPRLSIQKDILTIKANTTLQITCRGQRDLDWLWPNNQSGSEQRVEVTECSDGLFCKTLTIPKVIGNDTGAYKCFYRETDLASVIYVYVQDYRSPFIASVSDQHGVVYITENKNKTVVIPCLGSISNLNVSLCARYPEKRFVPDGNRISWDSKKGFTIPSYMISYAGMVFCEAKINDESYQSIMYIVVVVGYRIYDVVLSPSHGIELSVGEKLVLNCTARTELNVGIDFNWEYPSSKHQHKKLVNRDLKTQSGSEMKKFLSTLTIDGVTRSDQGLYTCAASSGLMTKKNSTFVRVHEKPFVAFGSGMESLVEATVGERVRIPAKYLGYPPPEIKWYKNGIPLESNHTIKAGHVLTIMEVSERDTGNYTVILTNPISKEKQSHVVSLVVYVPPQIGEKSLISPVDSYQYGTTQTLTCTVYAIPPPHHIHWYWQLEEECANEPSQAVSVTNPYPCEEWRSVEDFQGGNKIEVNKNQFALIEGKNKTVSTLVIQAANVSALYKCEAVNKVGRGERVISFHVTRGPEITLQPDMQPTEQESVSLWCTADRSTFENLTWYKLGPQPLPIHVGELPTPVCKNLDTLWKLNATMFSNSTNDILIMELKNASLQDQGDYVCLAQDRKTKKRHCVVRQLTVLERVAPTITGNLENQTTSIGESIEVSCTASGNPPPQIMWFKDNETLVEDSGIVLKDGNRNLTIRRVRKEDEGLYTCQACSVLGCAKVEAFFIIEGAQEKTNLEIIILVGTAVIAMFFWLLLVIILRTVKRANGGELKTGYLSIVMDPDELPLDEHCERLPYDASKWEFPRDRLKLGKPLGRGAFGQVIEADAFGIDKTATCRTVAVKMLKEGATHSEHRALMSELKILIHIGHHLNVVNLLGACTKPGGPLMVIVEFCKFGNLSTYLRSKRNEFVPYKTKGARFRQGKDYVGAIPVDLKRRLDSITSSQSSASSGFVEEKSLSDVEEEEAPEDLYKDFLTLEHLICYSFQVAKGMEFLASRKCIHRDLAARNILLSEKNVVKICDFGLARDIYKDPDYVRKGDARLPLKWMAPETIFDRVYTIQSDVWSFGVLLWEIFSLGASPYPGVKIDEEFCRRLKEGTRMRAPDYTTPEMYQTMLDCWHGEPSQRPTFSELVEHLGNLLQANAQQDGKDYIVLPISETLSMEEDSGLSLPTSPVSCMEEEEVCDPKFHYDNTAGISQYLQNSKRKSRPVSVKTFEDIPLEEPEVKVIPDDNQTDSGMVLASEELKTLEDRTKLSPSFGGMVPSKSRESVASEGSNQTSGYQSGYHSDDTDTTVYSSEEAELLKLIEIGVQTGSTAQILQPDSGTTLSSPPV

[7] = Permeability across artificial membrane by PAMPA; type: ADME; details: read-out: permeability
[8] = Solubility at neutral pH; type: physicochemical
[9] = Solubility at pH 4.5; type: physicochemical; details: buffer
[10] = molecular target: Epidermal growth factor receptor (Homo sapiens, UniProt P00533)
Sequence of Epidermal growth factor receptor (P00533 whole entry): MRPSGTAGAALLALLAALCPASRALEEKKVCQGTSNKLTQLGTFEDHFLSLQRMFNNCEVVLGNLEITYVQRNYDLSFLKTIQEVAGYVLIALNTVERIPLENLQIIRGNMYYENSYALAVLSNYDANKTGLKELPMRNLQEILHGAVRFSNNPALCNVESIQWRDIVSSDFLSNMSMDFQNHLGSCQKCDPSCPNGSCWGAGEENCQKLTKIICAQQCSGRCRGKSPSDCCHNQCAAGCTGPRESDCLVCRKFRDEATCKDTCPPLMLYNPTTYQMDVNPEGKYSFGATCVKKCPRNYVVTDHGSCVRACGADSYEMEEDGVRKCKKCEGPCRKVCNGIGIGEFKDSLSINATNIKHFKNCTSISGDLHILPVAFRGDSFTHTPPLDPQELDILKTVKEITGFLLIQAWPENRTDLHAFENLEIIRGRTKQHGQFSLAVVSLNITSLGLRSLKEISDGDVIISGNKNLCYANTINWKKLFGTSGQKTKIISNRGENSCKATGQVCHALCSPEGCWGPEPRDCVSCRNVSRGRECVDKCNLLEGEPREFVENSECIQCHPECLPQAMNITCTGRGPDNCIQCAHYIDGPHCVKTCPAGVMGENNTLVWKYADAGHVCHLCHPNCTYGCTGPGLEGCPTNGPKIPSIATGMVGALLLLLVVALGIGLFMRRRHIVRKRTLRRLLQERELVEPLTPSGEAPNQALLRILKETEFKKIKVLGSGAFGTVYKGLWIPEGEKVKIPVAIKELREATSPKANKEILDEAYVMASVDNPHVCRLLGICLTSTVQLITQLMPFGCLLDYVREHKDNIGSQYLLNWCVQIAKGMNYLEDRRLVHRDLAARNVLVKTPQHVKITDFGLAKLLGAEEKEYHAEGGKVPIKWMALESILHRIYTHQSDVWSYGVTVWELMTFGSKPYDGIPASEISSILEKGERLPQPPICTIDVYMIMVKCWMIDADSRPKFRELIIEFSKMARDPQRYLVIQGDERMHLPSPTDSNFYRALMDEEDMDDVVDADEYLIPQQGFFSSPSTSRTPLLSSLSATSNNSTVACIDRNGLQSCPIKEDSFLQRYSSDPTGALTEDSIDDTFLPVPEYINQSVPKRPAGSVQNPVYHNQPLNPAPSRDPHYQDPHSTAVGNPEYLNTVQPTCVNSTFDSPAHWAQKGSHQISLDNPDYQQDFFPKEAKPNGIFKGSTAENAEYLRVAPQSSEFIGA

Sequence of Proto-oncogene tyrosine-protein kinase Src (Homo sapiens, UniProt P12931) (P12931 2-536 limits assumed): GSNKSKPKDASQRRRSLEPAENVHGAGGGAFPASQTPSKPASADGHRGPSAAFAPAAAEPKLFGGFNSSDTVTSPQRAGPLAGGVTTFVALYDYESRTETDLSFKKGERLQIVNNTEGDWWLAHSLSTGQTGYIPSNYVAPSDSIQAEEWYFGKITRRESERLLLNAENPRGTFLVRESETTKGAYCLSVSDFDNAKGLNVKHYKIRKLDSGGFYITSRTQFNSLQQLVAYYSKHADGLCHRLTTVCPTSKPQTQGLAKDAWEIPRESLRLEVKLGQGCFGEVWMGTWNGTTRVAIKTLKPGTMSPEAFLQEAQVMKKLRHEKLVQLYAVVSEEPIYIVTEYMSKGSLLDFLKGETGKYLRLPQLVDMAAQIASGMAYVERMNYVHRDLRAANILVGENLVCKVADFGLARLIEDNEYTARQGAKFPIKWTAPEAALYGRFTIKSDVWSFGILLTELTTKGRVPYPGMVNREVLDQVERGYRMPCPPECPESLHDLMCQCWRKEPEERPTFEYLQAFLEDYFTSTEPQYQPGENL

COc1cc2c(Nc3cc(OC)c(OC)c(OC)c3)c(C#N)cnc2cc1C#CCCN1CCN(C)CC1
IC50 [1]: 21 nM | IC50 [2]: 590 nM

COc1cc(Nc2c(C#N)cnc3ccc(C#CCCN4CCN(C)CC4)cc23)c(Cl)cc1Cl
IC50 [1]: 230 nM | IC50 [2]: 3900 nM

COc1cc(Nc2c(C#N)cnc3cc(C#CCN4CCN(C)CC4)c(OC)cc23)c(Cl)cc1Cl
IC50 [1]: 11 nM | IC50 [2]: 740 nM

CCOc1cc2c(Nc3cc(OC)c(Cl)cc3Cl)c(C#N)cnc2cc1C#CCCN1CCN(C)CC1
IC50 [1]: 4.1 nM | IC50 [2]: 130 nM

COc1cc2c(Nc3ccc(Cl)cc3Cl)c(C#N)cnc2cc1C#CCCN1CCN(C)CC1
IC50 [1]: 8.7 nM | IC50 [2]: 430 nM

COc1cc(Nc2c(C#N)cnc3cc(C#CCCN4CCOCC4)c(OC)cc23)c(Cl)cc1Cl
IC50 [2]: 190 nM

COc1cc(Nc2c(C#N)cnc3cc(C#CCCN(C)C)c(OC)cc23)c(Cl)cc1Cl
IC50 [1]: 4.9 nM | IC50 [2]: 250 nM

COc1cc(Nc2c(C#N)cnc3cc(C#CCCN4CCN(C)CC4)ccc23)cc(OC)c1OC
IC50 [1]: 220 nM | IC50 [2]: 2100 nM

COc1cc(Nc2c(C#N)cnc3cc(C#CCCN4CCNCC4)c(OC)cc23)c(Cl)cc1Cl
IC50 [1]: 5.4 nM | IC50 [2]: 520 nM

COc1cc(Nc2c(C#N)cnc3cc(C#CCCN4CCN(C)CC4)c(OC)cc23)c(Cl)cc1Cl
IC50 [1]: 3.9 nM | IC50 [2]: 73 nM | IC50 [3]: > 5 µM | IC50 [4]: > 5 µM | IC50 [5]: > 5 µM | IC50 [6]: > 5 µM | Papp [7]: 6.8 ×10⁻⁶ cm/s | solubility [8]: 5 µg/mL (≈ 9.53 µM) | solubility [9]: > 100 µg/mL | IC50 [10]: 720 nM

COc1cc(Nc2c(C#N)cnc3cc(C#CCCN4CCN(C)CC4)ccc23)c(Cl)cc1Cl
IC50 [1]: 28 nM | IC50 [2]: 1700 nM
